Molecules are shown by their SMILES.

Here are results for one compound from BindingDB's records for doi:10.1016/j.bmc.2009.08.047 (University of Padova, 2009).

For the test, the target named is Casein kinase II subunit alpha (Rattus norvegicus, UniProt P19139). The test is described as follows: CK2 Phosphorylation Assay. Particulars: pH 7.5; 37 °C. How it is done: Inhibitory effect of test compound was assessed in reaction buffer containing purified CK2, synthetic peptide substrate, and [gamma-33P]ATP. Assays were stopped by addition of 0.5 M orthophosphoric acid before spotting aliquots onto phosphocellulose filters. Filters were washed in 75 mM phosphoric acid (5-10 mL/each) four times then once in methanol and dried before counting. Inhibition constants were determined from Lineweaver-Burk double-reciprocal plots of data obtained in experiments run at fixed concentration of peptide substrate and at increasing concentrations of ATP either in the absence or in the presence of variable concentrations of inhibitor. Alternatively inhibition constants were also deduced from the IC50/Ki Cheng-Prusoff relationship.
Sequence of Casein kinase II subunit alpha (P19139 whole entry): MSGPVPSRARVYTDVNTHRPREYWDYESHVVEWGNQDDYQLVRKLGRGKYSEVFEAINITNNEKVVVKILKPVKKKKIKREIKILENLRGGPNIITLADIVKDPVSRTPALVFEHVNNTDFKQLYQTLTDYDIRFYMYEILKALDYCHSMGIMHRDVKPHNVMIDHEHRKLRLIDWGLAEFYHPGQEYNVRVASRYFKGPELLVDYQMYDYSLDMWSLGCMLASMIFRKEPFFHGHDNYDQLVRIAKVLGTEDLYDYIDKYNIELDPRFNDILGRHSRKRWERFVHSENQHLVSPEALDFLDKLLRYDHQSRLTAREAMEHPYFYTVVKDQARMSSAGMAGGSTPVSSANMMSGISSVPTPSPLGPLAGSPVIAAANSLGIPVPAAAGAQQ

For `Brc1c(I)c(I)c2[nH]cnc2c1I` [iodinated benzimidazole, 3a], the Ki (in general, a measure of affinity in units of concentration, obtained from inhibition or displacement) was determined as 100 nM.
